Assay results taken from patent publication US20250222062A1, “PEPTIDE INHIBITORS TARGETING THE TBL1-BETA-CATENIN COMPLEX” (THE TRANSLATIONAL GENOMICS RESEARCH INSTITUTE, priority 2022, published 2025).
Where no end group is shown, it is not given here.

Experiments:
[1] = target: T1, TBL1/β-catenin complex (Homo sapiens, UniProt O60907); assay: Sandwich ELISA peptide library screening in colon cancer cell lysates; assay type: binding; conditions: screening of individual peptides, FIG. 7
T1 construct: TBL1/β-catenin complex from lysates of a colon cancer cell with active Wnt signaling was captured; endogenous in cells; host or cells: HCT15 and SW480 colon cancer cell lysates, cells pre-treated with 20 mM LiCl
T1 sequence (O60907 1-577): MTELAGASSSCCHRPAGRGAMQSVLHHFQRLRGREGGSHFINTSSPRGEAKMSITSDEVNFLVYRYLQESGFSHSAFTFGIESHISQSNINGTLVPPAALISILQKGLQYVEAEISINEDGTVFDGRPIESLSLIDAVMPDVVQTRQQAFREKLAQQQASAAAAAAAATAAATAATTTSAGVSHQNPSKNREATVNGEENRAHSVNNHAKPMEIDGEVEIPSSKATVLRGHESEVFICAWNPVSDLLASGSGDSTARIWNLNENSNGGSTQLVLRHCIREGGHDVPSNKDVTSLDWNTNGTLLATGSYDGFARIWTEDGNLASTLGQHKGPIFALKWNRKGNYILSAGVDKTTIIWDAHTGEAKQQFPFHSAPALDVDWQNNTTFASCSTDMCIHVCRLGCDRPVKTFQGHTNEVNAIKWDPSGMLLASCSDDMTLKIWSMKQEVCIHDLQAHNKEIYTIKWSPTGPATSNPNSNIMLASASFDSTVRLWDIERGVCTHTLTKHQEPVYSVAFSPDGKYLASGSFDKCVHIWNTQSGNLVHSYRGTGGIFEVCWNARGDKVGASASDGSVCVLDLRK
Protocol: To identify the peptide or peptides able to disrupt the interaction between TBL1 and (3-catenin, the sandwich ELISA approach was used (see FIG. 4). In this assay TBL1/β-catenin complex from lysates of a colon cancer cell with active Wnt signaling was captured in a Protein G ELISA 96-well plate coated with antibody that recognizes TBL1. To ensure activation of Wnt signaling, the cells were pre-treated with 20 mM LiCl for 12 h a 37° C. The bound complex was then exposed to peptides from the library either as single peptides or in a combination of 2 or 3 peptides to ensure coverage of the potential binding site between TBL1 and β-catenin. After washing away unbound proteins, the plates were incubated with β-catenin antibodies labeled with ALEXA FLUOR® 488 dye, and the level of β-catenin associated to TBL1 was quantified by a plate reader that detects the ALEXA FLUOR® 488 fluorescence probe. As a form of TBL1/β-catenin complex, we used colon cancer cell lines HCT15 and SW480. All the experiments were conducted in triplicate to ensure statistical significance. To reduce variability the assays were performed by using the EPMOTION® liquid handler. We designed a program that controls the peptide seeding into the ELISA plate wells: 1, 2 or 3 peptides per well, with overlap of one peptide in each well.
All wells in the screening were loaded with 1 mg/ml of lysate and incubated at 37° C. for 1 hour. After a wash, peptide combinations were added at a concentration of […] for each peptide and incubated at 37° C. for 2 hours followed by β-catenin detection as described. […] The SW480 lysate standard curve was generated by varying the concentration of lysate without any peptides present.
Additional screening was performed with the peptide library using the assay described in Example 2 with the colon cancer cell lines HCT15 and SW480.
Combinations of three peptides were subsequently assayed at varying concentrations to show a dose response in the disruption of the interaction between TBL1 and β-catenin.
To identify the peptide or peptides able to disrupt the interaction between TBL1 and (3-catenin, we tested the Sandwich ELISA approach. In this assay TBL1/β-catenin complex from lysates of colon cancer cell with active Wnt signaling, is captured in Protein G ELISA 96 well plate coated with antibody that recognizes TBL1. To ensure activation of Wnt signaling, the cells are pre-treated with 20 mM LiCl for 12 h a 37° C. The bound complex is then exposed to peptides from the library either as single peptide or in a combination of 2 or 3 peptides to ensure coverage of the potential binding site between TBL1 and β-catenin. After washing away unbound proteins, the plates are incubated with β-catenin antibodies labeled with Alexa Fluor 488 dye, and the level of β-catenin associated to TBL1 is quantified by a plate reader that detects the 488 fluorescence probe. As a font of TBL1/β-catenin complex we used colon cancer cell lines HCT15 and SW480. All the experiments are conducted in triplicated to ensure statistical significance, and to reduce variability we perform the assays by using the EpiMotion liquid handler. We designed a program that controls the peptide seeding into the ELISA plate wells: 1, 2 or 3 peptides per well, with overlap of one peptides in each well.

[2] = system: H358 (lung cancer); assay: Cell viability by CellTiter Glo; assay type: cell-based; conditions: 300 μM-0.01 μM for 72 hours, FIG. 24
[3] = system: HCT15 (colon cancer); assay: Cell viability by CellTiter Glo; assay type: cell-based; conditions: 300 μM-0.01 μM for 72 hours, FIG. 24
[4] = system: HCT116 (colon cancer); assay: Cell viability by CellTiter Glo; assay type: cell-based; conditions: 300 μM-0.01 μM for 72 hours, FIG. 24
[5] = system: SW480 (colon cancer); assay: Cell viability by CellTiter Glo; assay type: cell-based; conditions: 300 μM-0.01 μM for 72 hours, FIG. 24
[6] = system: transcription activity downstream TCF/LEF; assay: TOPFlash assay in HEK293 TCF/LEF luciferase cells stimulated with LiCl and Wnt3a, peptide treatment; assay type: cell-based; conditions: peptide at 5 μM for 6 hours, FIG. 17
Protocol: FIG. 17 presents a TOPFlash assay to determine transcription activity downstream TCF/LEF: HEK293 cells containing a luciferase downstream TCF/LEF were LiCl was administered 16 hours prior to treatment to stimulate the Wnt pathway. Then the cells were treated with recombinant Wnt3a to stimulate transcription and peptide at 5 μM or BC-2059 at 0.5 μM for 6 hours before luciferase expression was quantified with the One-Step Luciferase assay system.
FIG. 22 presents TOPFlash assay to determine transcription activity downstream TCF/LEF: HEK293 cells containing a luciferase downstream TCF/LEF were with LiCl 16 hours prior to treatment to stimulate the Wnt pathway. Then they were treated with recombinant Wnt3a to stimulate transcription and peptide 16 (short) and 2 (long) at 5 μM or BC-2059 at 0.5 μM for 6 hours before luciferase expression was quantified with the One-Step Luciferase assay system.
FIG. 23 presents TOPFlash assay results to determine transcription activity downstream TCF/LEF dependency to peptides: HEK293 cells containing a luciferase downstream TCF/LEF were with LiCl 16 hours prior to treatment to stimulate the Wnt pathway. Then they were treated with recombinant Wnt3a to stimulate transcription and peptide 16 (short) and 2 (long) at different concentrations (300 μM-0.01 μM) for 6 hours before luciferase expression was quantified with the One-Step Luciferase assay system. […]

[7] = system: transcription downstream TCF/LEF; assay: Washout TOPFlash assay; assay type: cell-based; conditions: FIG. 18
Protocol: FIG. 18 presents wash out TOPFlash at 8, 12,18, and 24 hour time points: to investigate the effects of peptide 3 over time with a washout TOPFlash assay. To do this we followed the same procedure previously stated but performed washouts at 8, 12, 18, and 24 hour time points. This experiment was completed in duplicate.
FIG. 18 presents wash out TOPFlash at 8, 12,18, and 24 hour time points: to investigate the effects of peptide 3 over time with a washout TOPFlash assay. To do this we followed the same procedure previously stated but performed washouts at 8, 12, 18, and 24 hour time points.
This experiment was completed in duplicate.

[8] = target: T2, TBL1 complex (β-catenin displacement) (Homo sapiens, UniProt O60907); assay: Homologous competitive ELISA with increasing logarithmic peptide concentrations; assay type: binding; conditions: increasing logarithmic concentrations of each peptide, FIG. 11
T2 sequence (O60907 1-577): T1 sequence (O60907 1-577)

[9] = target: T3, β-catenin bound to TBL1 (Homo sapiens, UniProt O60907); assay: Pull-down assay with TBL1 in SW480 cells transfected with peptides, Western blot; assay type: cell-based; conditions: FIG. 14
T3 construct: endogenous in cells; host or cells: SW480 colorectal cancer cells (only the peptides and the GFP control were transfected)
T3 sequence (O60907 1-577): T1 sequence (O60907 1-577)
Excerpt: FIG. 13 depicts a pull-down assay with TBL1 in the SW480 colorectal cancer (CRC) cell line transfected with the selected peptides.
Tegatrabetan (BC2059) is an antagonist of β-Catenin and was used as a positive control in the pull-down experiments. […] Green fluorescent protein (GFP) was also transfected into the SW480 cells as a negative control.

[10] = system: β-catenin-mediated transcriptional activation (TCF/LEF); assay: TOPFlash TCF/LEF reporter assay, reporter cells transfected with peptides; assay type: cell-based
Protocol: FIGS. 15A and 15B depict the results of a TOPFlash TCF/LEF reporter assay monitoring Wnt/β-catenin signaling pathway activity in cells expressing BC2059 (i.e., positive control) and Peptides 1-5.
A TOPFlash TCF/LEF reporter assay was performed with Peptides 1-5 as described in Veeman M T, et al. (2003) Curr Biol. 13(8):680-5. This is a luciferase reporter assay of (3-catenin-mediated transcriptional activation. Tegatrabetan (BC2059) was used as a positive control in the TOPFlash TCF/LEF reporter assay. Briefly, TCF/LEF reporter cells were transfected with the nucleofection kit. After 48 hours, the ONE-STEP™ luciferase assay was performed.

LKVLSVCSSNKPAIVEAGGM [Pep18]
disrupting the interaction between TBL1 and β-catenin [1]: showed efficacy

VDSVLFYAITTLHNLLLHQEGAKMAVRLAGGLQKMVALLNKTNV [Peptide 2]
cytotoxic effect (cell viability) [2]: cytotoxic effect | cytotoxic effect (cell viability) [3]: cytotoxic effect | cytotoxic effect (cell viability) [4]: cytotoxic effect | cytotoxic effect (cell viability) [5]: cytotoxic effect

NQESKLIILASGGPQALVNIMRTYTYEKLLWTTSRVLKVLSVCS [Peptide 3, longer peptide; in b127-b129 apparently used as CPP peptide]
levels of luciferase after treatment [6]: decreased levels of luciferase | blocking transcription downstream TCF/LEF ([7]; conclusion of washout TOPFlash): specific and effective | luciferase produced after washout ([7]; peptide washed out after 8 and 12 hours, compared to the non washout control): increase in luciferase produced

VVTCAAGILSNLTCNNYKNKMMVCQVGGIEALVRTVLRAGDRED [Peptide 5, longer peptide; in b127 apparently used as CPP peptide]
disrupting the interaction between TBL1 and β-catenin [1]: showed efficacy | displacement of β-catenin from the TBL1 complex [8]: able to displace β-catenin from the TBL1 complex in a dose dependent manner | amount of β-catenin bound to TBL1 [9]: most pronounced effects | levels of luciferase after treatment [6]: decreased levels of luciferase

LKVLSVCSSNKPAIVEAGGMQALGLHLTDPSQRLVQNCLWTLRN [Peptide 4]
disrupting the interaction between TBL1 and β-catenin [1]: showed efficacy | displacement of β-catenin from the TBL1 complex [8]: able to displace β-catenin from the TBL1 complex in a dose dependent manner | amount of β-catenin bound to TBL1 [9]: most pronounced effects

RTMQNTNDVETARCTAGTLH [Pep6]
cytotoxic effect (cell viability) [2]: cytotoxic effect | cytotoxic effect (cell viability) [3]: cytotoxic effect | cytotoxic effect (cell viability) [4]: cytotoxic effect | cytotoxic effect (cell viability) [5]: cytotoxic effect

HQLSKKEASRHAIMRSPQMVSAIVRTMONTNDVETARCTAGTLH (HQLSKKEASRHAIMRSPQMVSAIVRTMQNTNDVETARCTAGTLH) [Peptide 1, longer peptide, from b112 on]
β-catenin-mediated transcriptional activation (luciferase) ([10]; initial evaluation of all five peptides, 48 hours after transfection, FIG. 15A): significant decrease | β-catenin-mediated transcriptional activation (luciferase) ([10]; second experiment evaluating only Peptide 1, FIG. 15B): confirmed the earlier result

TYEKLLWTTSRVLKVLSVCS [Pep17]
disrupting the interaction between TBL1 and β-catenin [1]: showed efficacy

AIVEAGGMQALGLHLTDPSQ [Pep19]
disrupting the interaction between TBL1 and β-catenin [1]: showed efficacy
